# In patent publication US8709379B2, “Liposomal nanoparticles and other formulations of fenretinide for use in therapy and drug delivery” (Scitech Development, LLC, priority 2006, dated 2014):
# Where “and” joins values, the source holds several entries; their conditions need not be identical. Identical values can stand only once. Like-named read-outs stand apart in the source and are kept apart here.
# Legend:
# [1] = test system: EpiDerm-FT (full thickness living skin model)
# Protocol: (§1) Using an analytical method measuring HPR by HPLC, and extraction procedures that yield >95% recovery of HPR from skin homogenates, EpiDerm Enhanced Barrier Function and EpiDerm Full-thickness skin specimens were removed from the Franz cells at the scheduled time, washed and halved as described below, and then homogenized and extracted in acetonitrile supplemented with 4 μg/mL BHT, 0.1% ethanol for quantitation of HPR by HPLC. Receiver medium specimens were collected and processed for HPR analysis by HPLC as described below. Injection volumes were 100 μl for extracts of skin and receiver medium and 50 μl for calibration standards. HPR quantitation was by back calculation to a standard curve constructed from clinical grade HPR received from the NCI. […] For the second permeation study of Retin-A, PD05057 and HPR formulation C5 2005 using enhanced barrier function epidermal models, ATRA in the extracts of treated skin was quantified against an ATRA standard curve and HPR against an HPR standard curve.
# (§2) 18 reconstituted EpiDerm-Full Thickness specimens (EFT-306-AFAB-PRF, lot #7024-306-AFAB-PR) and 18 reconstituted EpiDerm Skin Model Enhanced Barrier Function (EPI-606-X-AFAB-PRF, lot #5093ofs) were received in good condition from Mattek Inc via overnight courier. EpiDerm-FT was maintained in culture by specialized medium changes every other day according to the manufacturer's instructions. EpiDerm-606X was stored refrigerated until use. EpiDerm-FT medium was free of phenol red, antibiotic and anti-fungal additives (EFT-300-MM-ASY-AFAB-PRF, lot #110405aab and EPI-100-X), so as to avoid creating artifactual toxicity or proinflammatory response. The particular skin specimens were all reconstituted with normal human epidermal keratinocytes and, for EpiDerm-FT, fibroblasts as well from a single donor foreskin.
# (§3) Three topical products were tested in the in vitro skin model: Retin-A 0.1% (lot #5BM258, expiry 02/07), HPR in topical formulation C5 and another HPR formulation (PD05057). These drugs were tested blindly using the following codes: “A” for Retin-A, “B” for the C5 formulation of HPR, and “D” for the HPR formulation PD05057. Receiver medium was made by mixing pre-warmed, 37° C. EFT-306 medium 5:1 with human serum albumin (Sigma A6909, lot #055K8904, then lot #095K8906) to its physiological concentration of 50 mg/mL. To prevent oxidation of HPR during the collection period, BHT was added to the receiver medium to a final concentration of 10 μg/mL from a 40 mg/mL solution of BHT-NF (Spectrum Chemicals, B1196, lot #UM0659) in Ethanol USP (NDC 11098-503-05, lot #121310). Each sterile amber Franz cells was pre-warmed to 37° C. using a circulating water bath, the bottom chamber filled completely with receiver medium (˜10 ml), and then reconstituted skin specimens were removed from the cell culture wells and spread across the orifice epidermis upward, and clamped into place with a sterile top chamber. Pre-weighed aliquots of a target dose of 1.7 mg Retin-A prepared using an analytical balance were applied to the epidermal face, disbursed and messaged with the aid of the rubber tip of 1 ml BD tuberculin syringes and the start time recorded.
# [2] = test system: EpiDerm-606X (epidermal model, enhanced barrier function); conditions: human, 0.1 %
# Protocol: as §1, §2, §3
# [3] = Delivered dose and retinoid flux, EpiDerm-FT in Franz cells; conditions: human, 1.7 mg Retin-A cream
# Protocol: as §1, §2, §3
# [4] = test system: EpiDerm-FT (full thickness living skin model); test: as above; conditions: EpiDerm-FT, collection period up to 5 hours
# Protocol: as §1, §2, §3
# [5] = Maximum (saturation) solubility of HPR in physiological aqueous systems with ethanol or human plasma proteins; type: physicochemical
# Protocol: Although the compound is readily soluble in ethanol, this solvent solubility was not maintained when an ethanol solution of HPR was mixed into aqueous buffered systems, like physiological solutions, and in fact, even when the ethanol content of an aqueous solution of HPR was as high as 20%, the HPR solubility only reached approximately 1-2 μg/ml.
# Purified human proteins were obtained from Sigma Chemical Company and dissolved in receiver medium, which was the same as the specialized medium from Mattek Inc used to maintain reconstituted skin systems or assay enhanced barrier permeability function. The individual proteins were dissolved to their respective plasma concentrations: high-density lipoprotein to 0.2 mg/mL, retinol binding protein to 0.05 mg/mL, serum albumin to 50 mg/mL (A6909, lot #055K8904), and acid α1-glycoprotein to 1 mg/mL (50646, lot #448248/1). HPR dissolved to 100 mg/mL in absolute ethanol supplemented with 4 mg/mL BHT was added to each protein solution to final theoretical concentration of 50 μg/mL and mixed by vortexing, the insoluble drug removed by centrifugation (12,000×g, 5 min, 23° C.), and the supernatant analyzed by HPLC to quantify HPR concentration.
# A study of the HPR solubilizing properties of physiological concentrations of four human drug-binding plasma proteins that were expected to bind HPR under physiological conditions was conducted in receiver medium: high-density lipoprotein (HDL), retinol binding protein (RBP), albumin (ALB), and acid α-1-glycoprotein (AGP). Although certainly not the highest affinity binding, ALB solubilized more HPR per mL of receiver medium than any other plasma protein tested, driven primarily by its much higher physiological concentration than the other proteins. The solubilizing capacity of ALB was 7.5 μg HPR per ml of medium, which was 5-fold higher than that of 20 vol % ethanol. Using physiological concentrations of ALB in the 10 ml receiving medium chamber created a sink condition capable of binding 75 μg of HPR. Since the test surface area of the Franz cell was 1 cm^2 and the testing was conducted over 5 hours, this receiver medium was capable of supporting an average flux rate of 15 μg/cm^2/hour. It was concluded that this receiving medium should provide true sink conditions, considering the applied test dose of API from each formulation was just 1.7 μg/cm^2.
# [6] = Clinical trial and pharmacokinetic study of oral HPR (corn oil soft gel capsules) in adult solid tumor patients; type: in vivo, human; conditions: for Cmax: po
# Protocol: In an early clinical trial and pharmacokinetic study of oral HPR (corn oil, soft gel capsules) administered qdx7 to adult solid tumor patients at Wayne State University, dose escalation proceeded to 1600 mg/m^2 TID per day for seven days (˜90 capsules/day for one week).
# [7] = Bioavailability of oral HPR in corn oil versus IV F23 in Sprague-Dawley rats; type: in vivo; conditions: plasma, rat, 1200 mg/m^2 in corn oil by gavage vs 444 mg/m^2 IV F23, AUC0-30, read-out: bioavailability of orally dosed HPR
# Protocol: The appropriate doses of injectable HPR administered IV to achieve desired blood or tissue levels can be determined by those skilled in the art, using data from related studies of oral and intravenous HPR formulations in healthy rats. For example, the present inventors administered a single, non-toxic bolus dose of 444 mg/m^2 of the F23 formulation (described herein) that was prepared at a strength of 50 mg/mL HPR, via femoral vein catheters to a group of seven dual catheterized Sprague-Dawley rats. A second group of rats received a single, non-toxic dose of 1200 mg/m^2 HPR in corn oil via oral gavage after an overnight fast which was maintained up until 2 hours after dosing. […]
# Mean blood plasma concentration-time curves of measured HPR following oral and IV administration are shown in (FIG. 2). From such results, the bioavailability of the oral HPR can be calculated, as an accepted measure of the proportion of orally administered drug that entered systemic circulation. […] Bioavailability of oral HPR administered in corn oil was calculated by comparing the AUC values achieved by oral and intravenous dosing using the equation:
# [formula] […] Assuming this to be similar to bioavailability of oral HPR in humans, which cannot be measured directly until human patients are actually dosed with intravenous HPR, it is possible to estimate suitable doses of HPR lipid nanoparticles for clinical use.
# [8] = test system: isolated epidermis (cadaveric); test: Permeation into isolated cadaveric epidermis in Franz cells; type: in vitro ADME; conditions: receiver medium PBS with ethanol to 20 vol %
# Protocol: Epidermal drug levels achieved by 3 hours were stable to 24 hours. The C5 formulation reached 11. μg/mg after single application. The products were tested as 0.1% strength creams. Thus, by increasing strength of the product to 0.5% and applying twice daily, it is possible to achieve target content levels in the skin. Moreover, as discussed below, the C5 formulation may be advantageous in reaching this level in epidermis alone.
# [9] = Maximum (saturation) solubility of HPR in physiological aqueous systems with ethanol or human plasma proteins; type: physicochemical; conditions: 23 °C, kinetic from dmso stock, PBS pH 7.4
# [10] = cited from earlier work
# human tumor cell lines = conditions: for 72 hours in vitro; cited from earlier work
# [11] = rat, 24 hours after dosing; cited from earlier work
# SCLC patients = conditions: cited from earlier work
# rodents = conditions: in vivo; cited from earlier work
smiles,measurement,setting,value
"CC1=C(/C=C/C(C)=C/C=C/C(C)=C/C(=O)O)C(C)(C)CCC1 [ATRA, all-trans-retinoic acid]",detection in receiver medium,[1],No ATRA was detected
same,retinoid in Cells (skin specimen),"[1]; human, 0.2 h, 0.1 %",0.031 µg
same,retinoid in receiver Medium,"[1]; human, 0.2 h, 0.1 %",0 µg
same,retinoid in Cells (skin specimen),"[1]; human, 2.1 h, 0.1 %",0.042 µg
same,retinoid in receiver Medium,"[1]; human, 2.1 h, 0.1 %",0 µg
same,retinoid in Cells (skin specimen),"[1]; human, 3 h, 0.1 %",0.056 µg
same,retinoid in receiver Medium,"[1]; human, 3 h, 0.1 %",0 µg
same,share of applied dose in skin specimen,"[1]; human, 3 h, 0.1 %",2.9%
same,retinoid in Cells (skin specimen),"[1]; human, 5 h, 0.1 %",0.035 µg
same,retinoid in receiver Medium,"[1]; human, 5 h, 0.1 %",0 µg
same,retinoid in Cells (epidermis),[2]; 1 h,0.209 µg
same,retinoid in receiver Medium,[2]; 1 h,0 µg
same,retinoid in Cells (epidermis),[2]; 2 h,0.106 µg
same,retinoid in receiver Medium,[2]; 2 h,0 µg
same,retinoid in Cells (epidermis),[2]; 3 h,0.046 µg
same,retinoid in receiver Medium,[2]; 3 h,0 µg
same,retinoid in Cells (epidermis),[2]; 5 h,0.032 µg
same,retinoid in receiver Medium,[2]; 5 h,0 µg
same,half-life at 0.1 %,[3],> 2 h
"CC1=C(/C=C/C(C)=C/C=C/C(C)=C\C(=O)O)C(C)(C)CCC1 [Formulation 13-cis-RA, 13-cis-retinoic acid]",detection in receiver medium,[4],accumulated in the receiver medium
"CC1=C(/C=C/C(C)=C/C=C/C(C)=C/C(=O)Nc2ccc(O)cc2)C(C)(C)CCC1 [HPR, N-4-hydroxyphenylretinamide]",solubility,"[5]; PBS with 20% ethanol, 23 °C, pH 7.4, aqueous with cosolvent or surfactant or cyclodextrin, kinetic from dmso stock, PBS pH 7.4, ethanol to 20% of volume, read-out: Maximum HPR Solubility",1 to 2 µg/mL
same,increase of HPR solubility by ethanol,[5]; PBS with 20 vol % ethanol versus physiological saline,200 fold
same,solubility,"[5]; phosphate-buffered saline with 20 vol % ethanol, pH 7.4, aqueous with cosolvent or surfactant or cyclodextrin, kinetic from dmso stock, phosphate-buffered saline with ethanol to 20 vol %, read-out: HPR solubility",~1.3 µg/mL
same,solubility,"[5]; physiological saline / aqueous systems, saline or isotonic, physiological saline / aqueous systems, read-out: HPR solubility",~0.005 µg/mL
same,solubilizing capacity of ALB relative to 20 vol % ethanol,[5]; receiver medium with albumin,5 fold
same,Cmax,"[6]; human, plasma, after the first dose",1000 ng/mL to 1300 ng/mL and 2.6 µM to 3.3 µM
same,Cmax,"[6]; human, plasma, after the last dose",2800 ng/mL to 4600 ng/mL and 7 µM to 12 µM
same,half-life,"[6]; human, plasma, oral HPR, patients, read-out: terminal phase half-life",8 to 14 h
same,ceiling of plasma HPR level,"[6]; oral, regardless of schedule or dose above 1200 mg/m^2 BID",≤ 5 µg/mL
same,bioavailability,[7],8%
same,HPR in receiver medium,[8],not detected
same,solubility,"[9]; human, PBS with albumin 50 g/L, pH 7.4, plasma or biological fluid, albumin 50 g/L",7 to 8 µg/mL
same,solubility,"[9]; human, PBS with high density lipoprotein 0.2 g/L, pH 7.4, plasma or biological fluid, high density lipoprotein 0.2 g/L",1.5 to 3 µg/mL
same,solubility,"[9]; human, PBS with retinol binding protein 0.05 g/L, pH 7.4, plasma or biological fluid, retinol binding protein 0.05 g/L",< 1 µg/mL
same,solubility,"[9]; human, PBS with α1-acid-glycoprotein 1 g/L, pH 7.4, plasma or biological fluid, α1-acid-glycoprotein 1 g/L",1 to 2 µg/mL
same,solubility,"[9]; phosphate buffered saline, pH 7.4, aqueous buffer, additive none",< 1 µg/mL
same,plasma level of HPR,"[10]; oral 25 mg/kg/day for 10 days, 3 hrs after last dose",80 ng/mL
same,plasma level of HPR,"[10]; oral 125 mg/kg/day for 10 days, 3 hrs after last dose",260 ng/mL
same,plasma level of HPR,[10]; oral 800 mg/kg/day,315 ng/mL
same,minimum HPR exposure level required to inhibit human tumor cell lines by at least 50-90%,human tumor cell lines,10 µM
same,accumulation in pancreas over plasma,[11],15-20 fold
same,maximum concentration of HPR in blood-plasma (±SD),"SCLC patients; 14 SCLC patients, 3-4 hours after 14th oral dose (twice/day, 7 days), in µM",7.7±4.4 04
same,maximum plasma concentration,"SCLC patients; SCLC patients, after final of 14 oral doses of 900 mg/m^2",approximately 7.7 μM
same,"stable disease, share of advanced SCLC patients",SCLC patients; oral HPR,30%
same,maximum tolerated dose (MTD),rodents,651 mg/m^2
same,maximum tolerated dose for parenteral HPR,rodents,~650 mg/m^2 per day
same,well tolerated daily dose,rodents,~600 mg/m^2
COc1ccc(NC(=O)\C=C(C)/C=C/C=C(C)\C=C\C2=C(C)CCCC2(C)C)cc1 [MPR],plasma level of MPR metabolite,[10]; oral HPR 125 mg/kg/day,60 ng/mL
same,plasma level of MPR metabolite,[10]; oral HPR 800 mg/kg/day,60 ng/mL
